Measured values reported in patent publication US10214546B2, “Btk inhibitors” (MERCK SHARP & DOHME CORP., priority 2014, dated 2019).
Where two headings read alike, the source gives them in different places.

How the values were obtained:
[1] = system: adenosine uptake into HeLa cells; assay: [3H]Adenosine uptake assay in HeLa cells; format: cell-based; conditions: [3H]adenosine accumulation in HeLa cells, compound range 10 μM to 0.032 nM, read-out: ADU inhibition IC50
Method: Compounds are also screened in an adenosine uptake functional cellular assay using the protocol described below:
[^3H]Adenosine Uptake Assay Methods
Adenosine uptake activity was determined by monitoring the accumulation of tritiated adenosine into HeLa cells (ATCC catalog # CCL-2) using a PMT-based radiometric detection instrument. In this assay, the potency (IC50) of each compound was determined from a ten point (1:3 serial dilution; final compound concentration range in assay from 10 µM to […]) titration curve using the following outlined procedure. To each well of a 96-well CytoStar-T scintillating microplate (Perkin Elmer Catalog # RPNQ0163), 25 000 HeLa cells in 100 µL of growth medium comprising: Minimum Essential Media (Life Technologies Catalog #11095-080)+10% (v/v) foetal bovine serum (FBS; Sigma Aldrich Catalog # F2442) was added. These cells were incubated overnight at 37° C. in a humidified atmosphere with 5% (v/v) CO2. After this time the growth medium was removed and replaced with 40 μL assay medium comprising: Hanks balanced salts solution (HBSS; Thermo Fisher Catalog # SH30268.01)+5% (v/v) FBS. Compound stock solutions in DMSO were diluted in assay medium to 2.5× final compound concentration maintaining a constant DMSO concentration of 0.25% (v/v). 40 μL of compound in assay medium was dispensed into individual wells of the Cytostar-T plates and the plates were incubated for 30 minutes under ambient laboratory conditions. Following this incubation, 20 μL of 500 nM [^3H] adenosine (American Radiolabeled Chemicals Inc. […] The amount of radiolabel accumulation was then determined using a Perkin Elmer Topcount NXT microplate reader. In brief, HeLa cells adhere to the bottom of the Cytostar-T plate, uptake of [^3H]adenosine into these cells brings the radiolabel into sufficient proximity to excite the scintillant in the base of the plates. These events are captured by single PMT, time-resolved coincidence counting. IC50 values were determined by 4 parameter robust fit of counts per second values vs. (Log10) compound concentrations.

[2] = biological target: BTK enzyme (recombinant full-length BTK, hBTK) (Homo sapiens (Human), UniProt Q06187); assay: BTK enzymatic activity LANCE TR-FRET assay; format: biochemical; conditions: 50 pM hBTK, 25 μM ATP, 2 μM biotin-A5-peptide; compound range 1 μM to 0.017 nM; read-out: BTK binding IC50
Method: Btk Enzyme Activity Assay Methods
BTK enzymatic activity was determined with the LANCE (Lanthanide Chelate Excite) TR-FRET (Time-resolved fluorescence resonance energy transfer) assay. […] Phosphorylation reactions were allowed to proceed for 120 minutes. […] After 60 minutes incubation with detection reagents, reaction plates were read on a PerkinElmer EnVision plate reader using standard TR-FRET protocol. […] IC50 values were determined by 4 parameter robust fit of TR-FRET ratio values vs. (Log10) compound concentrations.

BTK enzyme (recombinant full-length BTK, hBTK), sequence (Q06187 whole entry): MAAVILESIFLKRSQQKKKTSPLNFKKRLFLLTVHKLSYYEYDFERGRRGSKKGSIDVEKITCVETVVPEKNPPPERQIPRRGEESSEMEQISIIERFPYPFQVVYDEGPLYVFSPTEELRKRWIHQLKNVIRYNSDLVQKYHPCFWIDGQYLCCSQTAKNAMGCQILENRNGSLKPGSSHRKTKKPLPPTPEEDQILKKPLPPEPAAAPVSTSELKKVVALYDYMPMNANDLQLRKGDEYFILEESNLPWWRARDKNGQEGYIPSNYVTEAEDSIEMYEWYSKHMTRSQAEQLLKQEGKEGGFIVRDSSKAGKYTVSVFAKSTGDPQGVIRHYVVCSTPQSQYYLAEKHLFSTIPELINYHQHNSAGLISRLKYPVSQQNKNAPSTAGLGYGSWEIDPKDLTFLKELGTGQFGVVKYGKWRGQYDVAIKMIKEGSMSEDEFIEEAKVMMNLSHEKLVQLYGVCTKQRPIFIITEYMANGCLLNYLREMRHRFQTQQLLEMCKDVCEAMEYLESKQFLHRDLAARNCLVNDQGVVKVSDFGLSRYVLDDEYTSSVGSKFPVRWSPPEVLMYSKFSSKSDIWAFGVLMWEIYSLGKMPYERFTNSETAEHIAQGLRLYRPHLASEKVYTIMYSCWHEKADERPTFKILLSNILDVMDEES

| IC50 ([1]; Homo sapiens, HeLa) [nM] | IC50 [2] [nM] | IC50 [1] [nM] | SMILES |
| --- | --- | --- | --- |
| 865 | 876 |  | C[C@](O)(c1ccc(-c2nc([C@@H]3CC[C@H]4CCC(=O)N4C3)n3ccnc(N)c23)cc1)c1cccc(C(F)(F)F)n1 [Example 137, (6R,8aS)-6-[8-amino-1-(4-{(1S)-1-hydroxy-1-[6-(trifluoromethyl)pyridin-2-yl]ethyl}phenyl)imidazo [1,5-a]pyrazin-3-yl]hexahydroindolizin-3(2H)-one] |
|  | 678 | 467 | Nc1nccn2c([C@@H]3CC[C@H]4CCC(=O)N4C3)nc(-c3ccc(C(O)(c4cccc(C(F)(F)F)c4)C(F)F)cc3)c12 (stereo partly drawn) [Example 108, (6R,8aS)-6-[8-amino-1-(4-{2,2-difluoro-1-hydroxy-1-[3-(trifluoromethyl)phenyl]ethyl}phenyl)imidazo [1,5-a]pyrazin-3-yl]hexahydroindolizin-3(2H)-one] |
| 2500 | 1.2 |  | C[C@@](O)(c1ccc(-c2nc([C@@H]3CC[C@@H]4N(C3)C(=O)CC43CC3)n3ccnc(N)c23)cc1)c1cccc(C(F)(F)F)c1 [Example 188, (6′R,8a′S)-6′-[8-amino-1-(4-{(1R)-1-hydroxy-1-[3-(trifluoromethyl)phenyl]ethyl}phenyl)imidazo [1,5-a]pyrazin-3-yl]tetrahydro-5′H-spiro[cyclopropane-1,1′-indolizin]-3′(2′H)-one] |
|  | 0.07 | 1840 | CC(O)(c1ccc(-c2nc([C@@H]3CC[C@H]4CCC(=O)N4C3)n3ccnc(N)c23)cc1)c1cccc(C2CC2(F)F)c1 (stereo partly drawn) [Example 160, (6R,8aS)-6-[8-amino-1-(4-{1-[3-(2,2-difluorocyclopropyl)phenyl]-1-hydroxyethyl}phenyl)imidazo[1,5-a]pyrazin-3-yl]hexahydroindolizin-3(2H)-one] |
| 588 | 116 |  | C[C@](O)(c1ccc(-c2nc([C@@H]3CC[C@H]4CCC(=O)N4C3)n3ccnc(N)c23)cc1)c1cccc(Cl)c1 [Example 41, (6R,8aS)-6-(8-amino-1-{4-[(1S)-1-(3-chlorophenyl)-1-hydroxyethyl]phenyl}imidazo[1,5-a]pyrazin-3-yl)hexahydroindolizin-3(2H)-one] |
| 1330 | 0.12 |  | C[C@@](O)(c1ccc(-c2nc([C@@H]3CC[C@H]4CCC(=O)N4C3)n3ccnc(N)c23)cc1)c1cccc(C2CCC2)c1 [Example 83, (6R,8aS)-6-(8-amino-1-{4-[(1R)-1-(3-cyclobutylphenyl)-1-hydroxyethyl]phenyl}imidazo[1,5-a]pyrazin-3-yl)hexahydroindolizin-3(2H)-one] |
| 2220 | 1.9 |  | C[C@@](O)(c1ccc(-c2nc([C@@H]3CC[C@H]4COCC(=O)N4C3)n3ccnc(N)c23)cc1)c1cccc(C(F)(F)F)c1 [Example 157, (7R,9aS)-7-[8-amino-1-(4-{(1R)-1-hydroxy-1-[3-(trifluoromethyl)phenyl]ethyl}phenyl)imidazo [1,5-a]pyrazin-3-yl]hexahydropyrido[2,1-c][1,4)oxazin-4(3H)-one] |
| 888 | 0.22 |  | CN1CC[C@@H]2CC[C@@H](c3nc(-c4ccc([C@@](C)(O)c5cccc(C(F)(F)F)c5)cc4)c4c(N)nccn34)CN2C1=O [Example 114, (4aS,7R)-7-[8-amino-1-(4-{(1R)-1-hydroxy-1-[3-(trifluoromethyl)phenyl]ethyl}phenyl)imidazo [1,5-a]pyrazin-3-yl]-2-methyloctahydro-1H-pyrido[1,2-c]pyrimidin-1-one] |
| 311 | 17.4 |  | CC(O)(c1cccc(C(F)(F)F)c1)c1ccc(-c2nc([C@@H]3CC[C@H]4CCC(=O)N4C3)n3ccnc(N)c23)c(Cl)c1 (stereo partly drawn) [Example 100, (6R,8aS)-6-[8-amino-1-(2-chloro-4-{1-hydroxy-1-[3-(trifluoromethyl)phenyl]ethyl}phenyl)imidazo [1,5-a]pyrazin-3-yl]hexahydroindolizin-3(2H)-one] |
| 2010 | 0.21 |  | CC(C)c1cccc([C@](C)(O)c2ccc(-c3nc([C@@H]4CC[C@H]5CCC(=O)N5C4)n4ccnc(N)c34)cc2)c1 [Example 75, (6R,8aS)-6-[8-amino-1-(4-{(1R)-1-hydroxy-1-[3(1-methylethyl)phenyl]ethyl}phenyl)imidazo[1,5-a]pyrazin-3-yl]hexahydroindolizin-3(2H)-one] |
|  | 3.5 |  | CC(O)(c1ccccc1)c1ccc(-c2nc([C@@H]3CC[C@H]4CCC(=O)N4C3)n3ccnc(N)c23)cc1 (stereo partly drawn) [Example 23, (6R,8aS)-6-{8-amino-1-[4-(1-hydroxy-1-phenylethyl)phenyl]imidazol[1,5-a]pyrazin-3-yl}hexahydroindolizin-3(2H)-one] |

The next lines start with the compound.

| SMILES | IC50 ([1]; Homo sapiens, HeLa) [nM] | IC50 [2] [nM] | IC50 [1] [nM] |
| --- | --- | --- | --- |
| COc1cc(C(O)(c2cccc(C(F)F)c2)C(F)(F)F)ccc1-c1nc([C@@H]2CC[C@H]3CCC(=O)N3C2)n2ccnc(N)c12 (stereo partly drawn) [Example 210, (6R,8aS)-6-[8-amino-1-(4-{1-[3-(difluoromethyl)phenyl]-2,2,2-trifluoro-1-hydroxyethyl}-2-methoxyphenyl)imidazo [1,5-a]pyrazin-3-yl]hexahydroindolizin-3(2H)-one] |  | 67 | 2700 |
| Nc1ncc(Cl)n2c([C@@H]3CC[C@H]4CCC(=O)N4C3)nc(-c3ccc(C(O)c4cc(C(F)(F)F)ccc4F)cc3)c12 (stereo partly drawn) [Example 129, (6R,8aS)-6-[8-amino-5-chloro-1-(4-{[2-fluoro-5-(trifluoromethyl)phenyl] (hydroxy)methyl}phenyl)imidazo[1,5-a]pyrazin-3-yl]hexahydroindolizin-3(2H)-one] |  | 12.2 | 1660 |
| CC(O)(c1ccc(-c2nc([C@@H]3CC[C@H]4CCC(=O)N4C3)n3ccnc(N)c23)cc1)C1CC2CCC1CC2 (stereo partly drawn) [Example 147, (6R,8aS)-6-{8-amino-1-[4-(1-bicyclo[2.2.2]oct-2-yl-1-hydroxyethyl)phenyl]imidazo[1,5-a]pyrazin-3-yl}hexahydroindolizin-3(2H)-one] |  | 26.2 | 3830 |
| Nc1nccn2c([C@@H]3CC[C@H]4CCC(=O)N4C3)nc(-c3ccc(C(O)(c4ccc(F)cc4)C(F)(F)F)cc3)c12 (stereo partly drawn) [Example 32, (6R,8aS)-6-(8-amino-1-{4-[2,2,2-trifluoro-1-(4-fluorophenyl)-1-hydroxyethyl]phenyl}imidazo[1,5-a]pyrazin-3-yl)hexahydroindolizin-3(2H)-one] |  | 161 |  |
| CC1(C)C[C@@H]2CC[C@@H](c3nc(-c4ccc(C(C)(O)c5cccc(C(F)(F)F)c5)cc4F)c4c(N)nccn34)CN2C1=O (stereo partly drawn) [Example 196, (6R,8aS)-6-[8-amino-1-(2-fluoro-4-{1-hydroxy-1-[3-(trifluoromethyl)pheyl]ethyl}phenyl)imidazo [1,5-a)pyrazin-3-yl]-2,2-dimethylhexahydroindolizin-3(2H)-one] |  | 500 | 369 |
| C[C@](O)(c1ccc(-c2nc([C@@H]3CC[C@H]4CCC(=O)N4C3)n3ccnc(N)c23)cc1)c1cccc(-n2ccnc2)c1 [Example 153, (6R,8aS)-6-[8-amino-1-(4-{(1S)-1-hydroxy-1-[3-(1H-imidazol-1-yl)phenyl]ethyl}phenyl)imidazo[1,5-a]pyrazin-3-yl]hexahydroindolizin-3(2H)-one] | 1960 | 1000 |  |
| CC(O)(c1ccc(-c2nc([C@@H]3CC[C@H]4CCC(=O)N4C3)n3ccnc(N)c23)cc1)C1CC2CCC1CC2 (stereo partly drawn) [Example 150, (6R,8aS)-6-{8-amino-1-[4-(1-bicyclo[2.2.2]oct-2-yl-1-hydroxyethyl)phenyl]imidazo[1,5-a]pyrazin-3-yl}hexahydroindolizin-3(2H)-one] |  | 1.6 | 2410 |
| CC1(C)C[C@@H]2CC[C@@H](c3nc(-c4ccc(C(C)(O)c5cccc(C(F)F)c5)cc4F)c4c(N)nccn34)CN2C1=O (stereo partly drawn) [Example 201, (6R,8aS)-6-[8-amino-1-(4-{1-[3-(difluoromethyl)phenyl]-1-hydroxyethyl}-2-fluorophenyl)imidazo[1,5-a]pyrazin-3-yl]-2,2-dimethylhexahydroindolizin-3(2H)-one] |  | 42.2 | 418 |
| Nc1nccn2c([C@@H]3CC[C@H]4CCC(=O)N4C3)nc(-c3ccc(C(O)(c4ccc(C(F)(F)F)cc4)C(F)(F)F)cc3)c12 (stereo partly drawn) [Example 28, (6R,8aS)-6-[8-amino-1-(4-{2,2,2-trifluoro-1-hydroxy-1-[4-(trifluoromethyl)phenyl]ethyl}phenyl)imidazo [1,5-a]pyrazin-3-yl]hexahydroindolizin-3(2H)-one] |  | 792 |  |
